{
  "source": "patent US20220397566A1",
  "about": "“GAMMA-SECRETASE STABILIZING COMPOUND SCREENING ASSAY” (VIB VZW, priority 2019, published 2022)",
  "type_in_all_cases": "cell-based, mouse",
  "key": {"PSEN2/g-secretase": {"target": "T1, PSEN2/g-secretase (Homo sapiens, UniProt P49810)", "T1 construct": "expressed in transfected cells", "test": "Localisation of GFP-PSEN2/g-secretase in LAMP1-positive organelles (confocal)", "settings": "1 μM, 16 hrs; dKO MEFs rescued with EGFP-PSEN2", "description": "We now questioned whether g-secretase inhibitors would affect subcellular distribution of g-secretase complexes as well. We made use of mouse embryonic fibroblasts (MEFs) in which both PSEN1 an PSEN2 are knocked-out (dKO), rescued with either EGFP-PSEN1 or EGFP-PSEN2 (FIG. 1A). […] The dKO MEFs were then incubated overnight with N—[N-(3,5-difluorophenacetyl)-L-alanyl]-S-phenylglycine t-butyl ester (DAPT). DAPT is a non-transition state analogue (TSA) g-secretase inhibitor that is widely used (Dovey et al 2001 J Neurochem 76).\nAll culture media and sera are from ThermoFisher Scientific. Mouse embryonic fibroblasts (MEFs), PSEN1 knock-out (1 ko), PSEN1 and PSEN2 double knock-out (dKO, Herreman et al 2000 Nat Cell Biol 2), rescued 1 ko and dKO cell lines cells were routinely grown in Dulbecco's modified Eagle's medium (DMEM/F12) supplemented with 10% fetal calf serum (FCS). All cell lines were maintained in a humidified chamber with 5% CO2 at 37° C. […]\n(§1) Cells were plated on glass coverslips, transfected 24 h later and processed for indirect immunolabeling the next day (Sannerud et al 2011 Proc Natl Acad Sci USA 108). […] ImageJ software with the plugin JACoP (Bolte and Cordelieres 2006 J Microsc 224) was used for signal overlap quantification (Mander's coefficient). Images were acquired with identical settings and regions of interest (ROI) covering whole cells were used for quantification."}, "[1]": {"test_system": "LAMP1-positive organelles", "test": "Size area of LAMP1-positive organelles per cell", "settings": "1 μM, 16 hrs", "description": "FIG. 1. DAPT relocates PSEN1/g-secretase to late endosomes. (A) PSEN1 and PSEN2 double knock-out (dKO) MEFs stably expressing GFP-PSEN1 or GFP-PSEN2 were treated for 16 h with 1 μM of DAPT or DMSO and immunostained for GFP (green) and LAMP1 antibodies (red). (B) Quantification of (A) using Mander's coefficient. (C) Ratio of GFP intensity in LAMP1-positive structures over total GFP intensity in the cell, normalized to DMSO-treated cells (control=Ctrl). (D) Quantification of size area of LAMP1-positive organelles per cell showing no significant differences between DMSO and DAPT-treated cells. (E) PSEN1, PSEN2 and NCT triple KO MEFs stably rescued with NCT-SNAP and GFP-PSEN1 were treated for 16 h with 1 μM of DAPT or DMSO (Ctrl). […] All graphs show the median with 95% confidence interval (n=3, ˜20 cells per experiments; p-values are calculated using Mann-Whitney test; ns means non-significant).\nas §1"}, "g-secretase subunits": {"target": "T2, g-secretase subunits (Homo sapiens, UniProt P49768)", "T2 construct": "expressed in transfected cells", "test": "Expression of g-secretase subunits (Western blot)", "settings": "1 μM DAPT; data not shown", "description": "First, in the PSEN1 KO mouse embryonic fibroblasts (MEFs) rescued with EGFP-PSEN1 (see Example 1) the expression of the g-secretase subunits was tested and found not affected by administering any of the 12 compounds, including DAPT that was used as positive control (data not shown).\nProtein concentrations were determined by the Bio-Rad DC protein assay (Bio-Rad). Samples were separated by SDS-PAGE (4-12% Bis-Tris NuPAGE gels in MES running buffer (ThermoFisher Scientific) and transferred onto nitrocellulose membranes (ThermoFisher Scientific). After blocking in 5% non-fat milk, membranes were incubated with primary antibody (4° C., overnight) followed by washing and incubation with horseradish peroxidase (HRP)-conjugated secondary antibodies (1 h, room temperature). After final washing, immunodetection was done using enhanced chemiluminescence (Western Lightning-Plus ECL, PerkinElmer), and immunoreactive protein bands were digitally captured and quantified on a Fuji MiniLAS 3000 imager (Fuji, Dusseldorf, Germany) using Aida Image Analyzer software (Raytest, Germany). Data are represented as mean±SEM of at least three independent experiments."}, "[2]": {"target": "T3, PSEN1/g-secretase complex (Homo sapiens, UniProt P49768)", "T3 construct": "expressed in transfected cells", "test": "Relocation of GFP-PSEN1/g-secretase to LAMP1-positive late endosomes (confocal immunofluorescence)"}},
  "data": [
    {"smiles": "C[C@H](NC(=O)Cc1cc(F)cc(F)c1)C(=O)N[C@H](C(=O)OC(C)(C)C)c1ccccc1", "note": "[DAPT, N—[N-(3,5-difluorophenacetyl)-L-alanyl]-S-phenylglycine t-butyl ester]", "values": [
      {"measurement": "EGFP-PSEN2 in LAMP1-positive organelles, Mander's coefficient", "setting": "PSEN2/g-secretase", "value": "no additional effect"},
      {"measurement": "ratio of EGFP-PSEN2 fluorescence within LAMP1-positive compartments over total", "setting": "PSEN2/g-secretase", "value": "remained unaltered"},
      {"measurement": "total size area of LAMP1-positive organelles", "setting": "[1]", "value": "no measurable effect"},
      {"measurement": "steady state of PSEN1 or PSEN2 protein levels", "setting": "g-secretase subunits", "value": "no measurable effect"},
      {"measurement": "co-distribution of EGFP-PSEN1 with anti-LBPA immunoreactivity (late endosomes)", "setting": "[2]; PSEN1 KO MEFs rescued with GFP-PSEN1, 1 μM, 16 h", "value": "even more strongly co-distributed with anti-LBPA immunoreactivity"},
      {"measurement": "relocation of EGFP-PSEN1 to LAMP1-positive organelles", "setting": "[2]; single PSEN1 KO MEFs stably transduced with EGFP-PSEN1, data not shown", "value": "Identical observations"},
      {"measurement": "co-accumulation of EGFP-PSEN1 and NCT-SNAP in LAMP1-positive organelles", "setting": "[2]; triple KO MEFs rescued with EGFP-PSEN1 and NCT-SNAP, 1 μM, 16 h", "value": "co-accumulate in LAMP1-positive organelles"}
    ]}
  ]
}
